Reference: US20040171688A1, “Carboxylic acids and derivatives thereof and pharmaceutical compositions containing them” (priority 1997, published 2004)

Biological target: T1, HNF-4α (Rattus norvegicus, UniProt P22449)
T1 sequence (P22449 1-464 isoform P22449-2): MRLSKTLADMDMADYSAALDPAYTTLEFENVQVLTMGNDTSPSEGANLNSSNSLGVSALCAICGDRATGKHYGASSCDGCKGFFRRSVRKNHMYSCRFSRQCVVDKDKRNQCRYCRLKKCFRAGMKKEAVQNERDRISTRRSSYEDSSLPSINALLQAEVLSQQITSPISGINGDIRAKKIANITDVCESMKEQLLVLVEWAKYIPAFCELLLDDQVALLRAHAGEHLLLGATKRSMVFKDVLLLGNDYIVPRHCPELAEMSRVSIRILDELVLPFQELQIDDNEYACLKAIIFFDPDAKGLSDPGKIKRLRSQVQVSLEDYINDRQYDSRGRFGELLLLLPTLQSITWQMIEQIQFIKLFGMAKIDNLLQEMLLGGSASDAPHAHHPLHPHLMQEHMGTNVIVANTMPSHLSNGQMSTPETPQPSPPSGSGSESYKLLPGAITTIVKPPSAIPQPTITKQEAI
Test: In vitro transcription assay induced by His-HNF-4α with HeLa nuclear extract
Type: biochemical
Set-up: The full length HNF-4α1 cDNA cloned into 6His-pET11d vector was expressed in E.coli BL21 (DE3)plysS; 6His; made in house; host or cells: E. coli BL21 (DE3)plysS
Conditions: for HNF-4α transcriptional activity, agonist/antagonist character (summary): summary statement of Example 4
Method: a. Representative experiments showing in vitro transcription of the test template in the presence of increasing concentrations of His-HNF-4I and in the absence (lanes 1-3, 7-9) or presence of 10 μM of added palmitoyl(16:0)-CoA (lanes 4-6) or stearoyl(18:0)-CoA (lanes 10,11) as indicated. Correctly initiated transcripts of the test and control templates are denoted by (→) and ? , respectively.
b. HNF-4I-induced in vitro transcription in the absence (empty bars) or presence of 10 μM each of added palmitoyl(16:0)-CoA (filled bars) or stearoyl(18:0)-CoA (hatched bars). Fold transcription indicates the ratio of specific transcript produced by the test template over transcript from the control template normalized to the ratio observed without HNF-4a. The figure summarizes 5 independent experiments for each acyl-CoA. *-Significant as compared with the respective value in the absence of added ligand.
Reaction mixture contained 20 mM Hepes-KOH (pH 7.9), 5 mM MgCl2, 60 mM KCl, 8% glycerol, 2 mM DTT, 1 mM 3′-O-methyl-GTP, 10 units of T1RNase, 20 units of RNasin, 0.5 μg sonicated salmon sperm DNA and His-HNF-4α and test ligand as indicated. The mixture was preincubated for 30 min at 22° C. followed by adding 10 ng of pAdML200 control template consisting of the adenovirus major-late promoter (−400/+10) linked to a 200 bp G-less cassette and 200 ng of the test template consisting of three C3P copies of the apo CIII promoter sequence (−87/−66) upstream to a synthetic ovalbumin TATA box promoter in front of a 377 bp-G-less cassette. The mixture was further preincubated for 10 min at 22° C. followed by adding 40 μg of HeLa nuclear extract with additional preincubation for 30 min at 30° C. 0.5-mM ATP, 0.5 mM CTP, 25 μM UTP, and 10 μCi of [α-^32P]UTP (s.a. […], Amersham) were then added and the complete reaction mixture was incubated for 45 min at 30° C. in a final volume of 25 μl. The reaction was terminated by adding 175 μl of stop mix (0.1 M sodium acetate (pH 5.2), 10 mM EDTA, 0.1% SDS, 200 μg/ml tRNA) followed by phenol extraction and ethanol precipitation. RNA was resuspended in sample buffer containing 80% formamide and 10 mM Tris-HCl (pH 7.4) and separated on 5% polyacrylamide gel containing 7 M urea in TBE. Correctly initiated transcripts were quantitated by PhosphorImager analysis. The test DNA template was constructed by inserting into pC2AT19 plasmid a PCR-amplified oligonucleotide prepared by using the (C3P)3-TK-CAT plasmid as template and consisting of three copies of the C3P element of the Apo CIII promoter sequence (−87/−66) having an ECoRI and SSTI sites at the 5′ and 3′ ends, respectively. The resultant plasmid was cleaved with sphI and sacI and ligated to a synthetic oligonucleotide (5′-CGAGGTCCAC-[…]-3′) containing sequences of the HSV thymidine kinase promoter (−41/−29) and of the chicken ovalbumin promoter (−33/−21).
The effect of agonistic and antagonistic HNF-4α-ligands was further evaluated by analyzing the in vitro transcription rate, catalyzed by added HeLa nuclear extract and induced by recombinant HNF-4α, of a test template consisting of a 377 bp G-less cassette promoted by sequences of the HSV thymidine kinase and chicken ovalbumin promoters and enhanced by three C3P copies of the apo Clil gene promoter. Transcriptional activation by HNF-4α was evaluated in the presence and in the absence of added representative long chain fatty acyl-CoAs. […]

Row | SMILES | HNF-4α transcriptional activity, agonist/antagonist character (summary) | effect on HNF-4α induced in vitro transcription (10 μM added acyl-CoA (FIG. 3))
1 | CCCCCCCCCCCCCC(=O)SCCNC(=O)CCNC(=O)[C@H](O)C(C)(C)COP(=O)(O)OP(=O)(O)OC[C@H]1O[C@@H](n2cnc3c(N)ncnc32)[C@H](O)[C@@H]1OP(=O)(O)O [myristoyl(14:0)-CoA, reference compound] | activators | –
2 | CCCCCCCCCCCCCCCCCC(=O)SCCNC(=O)CCNC(=O)[C@H](O)C(C)(C)COP(=O)(O)OP(=O)(O)OC[C@H]1O[C@@H](n2cnc3c(N)ncnc32)[C@H](O)[C@@H]1OP(=O)(O)O [Stearoyl(18:0)-CoA] | true antagonist | inhibited
